From patent publication US20160153997A1, “OLIGOPEPTIDE SPECIFIC TO COLORECTAL CANCER CELL AND APPLICATION THEREOF” (National Tsing Hua University, priority 2014, published 2016)
Where “and” joins values, the source holds several entries; their conditions need not be identical. Identical values can stand only once.

How the values were obtained:
Experiment in all cases: Capturing ability analysis, peptide-bonded magnetic beads mixed with cells
Type in all cases: cell-based
[1] = tested on: colorectal cancer cells (HCT-8); settings: colorectal cancer cell (HCT-8); 2×10^5 cells, room temperature, 25 rpm 30 minutes
From the text: (§1) In one embodiment, the peptide sequences of Seq ID: NO. 1 to Seq ID: NO. 3 are respectively bonded to the beads and mixed with different cell lines , respectively, including colorectal cancer cells (HCT-8), colorectal cancer stem cells (CR-CSC), human hepatoma cells (HepG2), human in situ pancreatic cancer cells (BxPC-3), human lung adenocarcinoma cells (A549) and human breast cancer cells (MCF7). Wherein, the beads having peptide sequences are mixed with each cell line at room temperature for 25 rpm 30 minutes, and the cell number of each cell line is 2×10^5. After washing for several times, the number of cells captured with magnetic beads having the above peptide sequences are calculated and the results are shown as Table 1 below.

[2] = tested on: colorectal cancer stem cells (CR-CSC); settings: colorectal cancer stem cell (CR-CSC); 2×10^5 cells, room temperature, 25 rpm 30 minutes
From the text: as §1

[3] = tested on: human breast cancer cells (MCF7); settings: human breast cancer cell (MCF7); 2×10^5 cells, room temperature, 25 rpm 30 minutes
From the text: as §1

[4] = tested on: human hepatoma cells (HepG2); settings: human hepatoma cell (HepG2); 2×10^5 cells, room temperature, 25 rpm 30 minutes
From the text: as §1

[5] = tested on: human in situ pancreatic cancer cells (BxPC-3); settings: human in situ pancreatic cancer cell (BxPC-3); 2×10^5 cells, room temperature, 25 rpm 30 minutes
From the text: as §1

[6] = tested on: human lung adenocarcinoma cells (A549); settings: human lung adenocarcinoma cell (A549); 2×10^5 cells, room temperature, 25 rpm 30 minutes
From the text: as §1

Row | Substance | Capturing ability (%) [1] | Capturing ability (%) [2] | Capturing ability (%) [3] [%] | Capturing ability (%) [4] [%] | Capturing ability (%) [5] [%] | Capturing ability (%) [6] [%]
1 | Seq ID: NO. 1: peptide sequence screened from M13 phage display peptide library, having binding specificity and affinity to HCT-8 or CR-CSC (AELAKLPLF) | 43.30% and 43.40 ± 7.23% | 22.97 ± 4.29% | 12.84 ± 7.67 | 23.60 ± 3.50 | 3.41 ± 1.14 | 28.51 ± 7.09
2 | Seq ID: NO. 2: peptide sequence screened from M13 phage display peptide library, having binding specificity and affinity to HCT-8 or CR-CSC (GAISFDHVHP) | 45.16% and 45.16 ± 7.12% | 20.85 ± 0.61% | 20.45 ± 4.04 | 23.02 ± 2.77 | 3.13 ± 0.62 | 34.29 ± 5.22
3 | Seq ID: NO. 3: peptide sequence screened from M13 phage display peptide library, having binding specificity and affinity to HCT-8 or CR-CSC (MNAKWPIENLMN) | 9.42 ± 2.67% | 49.79% and 49.79 ± 5.34% | 10.68 ± 5.08 | 17.87 ± 6.18 | 3.58 ± 1.18 | 16.77 ± 6.49
